Columns and labels:
[1] = system: p53, Mdm2, p21, PCNA, Bax and Bcl-2; assay: Gene expression assay (semi-quantitative PCR, Western blot) in rat liver, progression stage; type: in vivo
Method: RNA was extracted from 300 μg of rat liver and was measured as described in foregoing examples Three micrograms of total RNA, 1 μl of an oligo dT primer and certain volume of RNase-Free H2O were mixed into a total volume of 12 μl. The mixture was incubated at 70° C. for 10 minutes and immediately chilled on ice. Four microliters of 5× First Stand Buffer, 2 μl of 0.1M DTT, 1 μl of 10 mM dNTP mix, and 1 μl of SuperScript II were added to each tube and mixed. The tubes were incubated at 42° C. for 50 minutes followed by 70° C. for 15 minutes before chilling on ice. The cDNA was then ready for PCR amplification.
The PCR reactions were performed in a final volume of 20 μl in a Gene Amp® PCR system. The PCR reaction mix contained 1 μl of cDNA synthesized previously, 2 μl 10×PCR Buffer, 0.4 μl 10 mM dNTP mix, 1.2 μl 25 mM MgCl2, 1 μl 10 mM primer mix, 0.2 μl recombinant Taq polymerase, and 14.2 μl autoclaved ddH2O.
The intensity of the PCR products was analyzed by the software Image J. The band intensity of the β-actin gene was measured as an internal control. The ratio of the band intensities of the target gene to the β-actin gene was used to compare the mRNA level of each gene between different treatment groups.
Three hundred micrograms of each liver sample were homogenized in the Solution C at 1 g/ml using a glass homogenizer on ice. The homogenate was transferred to a microcentrifuge tube and centrifuged at 13,000 rpm for 20 minutes. The supernatant was collected and equal volume of 2× sample loading dye was added to each sample. The samples were stored at −20° C. The protein was used for immunodetection of the expression level of Bax, Bcl-2, PCNA and p21.
Three hundreds micrograms of each liver sample were homogenized in Solution A at 1 g/ml using the glass homogenizer on ice. The homogenate was transferred into a microcentrifuge tube and centrifuged at 3,000 rpm for 5 minutes to spin down the unbroken tissue. The supernatant was collected and incubated on ice for 5 minutes and then centrifuged at 5,000 rpm for 5 minutes. The supernatant was discarded and the pellet was lysed by 100 μl Solution B. The lysing process lasted for 20 minutes on ice. After incubation, the solution was centrifuged at 12,000 rpm for 15 seconds to spin down the cell debris. The supernatant was collected and equal volume of 2× sample loading dye was added to each sample. The samples were ready for immunodetection of the expression level of p53 and mdm2.
Each of the transferred membrane blots was incubated in 4 ml TBST with 5% non-fat milk powder and primary antibody overnight at 4° C. After incubation, the membrane was washed in TBST buffer for 10 minutes for 3 times. Each transferred membrane blot was then incubated in 4 ml TBST and 5% non-fat milk powder with secondary antibody for 1 hour at room temperature. After incubation, the membrane was washed in TBST buffer for 10 minutes for 3 times. The membrane was ready for ECL reaction.
The films that captured the signal from the ECL reaction were scanned into the computer and analyzed by the software Image J to read the density of darkness.
Rats in the negative control group received weekly intraperitoneal (i.p.) injection of DMSO for the first 2 weeks and then Corn Oil for 28 weeks. Rats in the positive control and SIN-treatment groups both received weekly intraperitoneal (i.p.) injection of DEN for the first 2 weeks and then CCl4 for 28 weeks. Two weeks of fasting were inserted between DEN treatment and CCl4 treatment. Starting from 33rd week, negative and positive control groups received oral administration of water once a day. Sinigrin with dosage 15 mg/kg was administered orally to the SIN-treatment group daily for 24 weeks. After treatment, the rats were killed. Blood and liver were collected and processed as described in the foregoing examples.
The gene expression assays were performed as described in the foregoing examples. […]

Sprague Dawley (SD) rats [2] = assay: Serum AST/ALT assay, promotion stage; type: in vivo, rat; details: promotion stage (FIG. 10), 15 mg/kg oral daily
Excerpt: In the promotion stage experiment, rats in the negative control group received weekly intraperitoneal (i.p.) injection of DMSO for the first 2 weeks and then Corn Oil for the rest of the schedule. Rats in the positive control and SIN-treatment groups both received weekly intraperitoneal (i.p.) injection of the carcinogen DEN for the first 2 weeks and then promoter, Carbon Tetrachloride (CCl4) for the rest of the schedule. Two weeks of fasting were inserted between the initiator carcinogen treatment and the promoter CCl4 treatment. During the fasting period of 2 weeks, rats were fasted for 5 days, followed by a 2 day feeding, and another 5 days of fasting. Water was given ad libitum. Negative and positive control groups received oral treatment of water once a day after fasting. Sinigrin with dosage 15 mg/kg was administered orally to the treatment group daily for 28 weeks after fasting. […]
(§1) The serum AST activity assay was measured by a Stanbio AST (UV-Rate) kit. […] Absorbance was measured at OD 340 nm. After incubation for 1 minute, a reading was taken and the reading at this point was counted as time zero. Readings were then taken at 30 second interval for 3 minutes. The change of absorbance per minute was calculated and the AST activity was calculated by the formula
(§2) The ALT assay was measured by a Stanbio […]. […]

Sprague Dawley (SD) rats [3] = assay: Serum AST/ALT assay, progression stage; type: in vivo, rat
Method: ALT (Alanine aminotransferase) and AST (Aspartate aminotransferase) are two enzymes that are specifically located in the liver. These two enzymes normally distribute little in blood serum. When liver damage occurs, the hepatocytes break and these two enzymes are released into the blood. An AST/ALT assay was used to diagnose liver damage. Rat blood was collected in a 13 ml BD PLUS-SST II serum vacutainer and allowed to stand for 20 minutes on ice to coagulate. The vacutainer was then centrifuged at 3,500 rpm for 15 minutes. The upper layer serum was collected. The AST/ALT assay was performed within 2 days to minimize the loss of the enzymes.
as §1, with “kit. Fifteen milliliters of ddH2O were added into one bottle of the reagent in the kit and mixed thoroughly according to the kit protocol. One milliliter of the reagent was incubated at 37° C. for at least 10 minutes for each reaction.” for “kit.”
as §2

## C=CC/C(=N/OS(=O)(=O)[O-])S[C@@H]1OC(CO)[C@@H](O)C(O)C1O.[K+] (stereo partly shown) [SIN, sinigrin]
[1]; RT-PCR
  Mdm2 mRNA expression: reduced back to levels near or even lower than the negative control
  p53 mRNA expression: reduced back to levels near or even lower than the negative control
[1]; Western blot
  Bax protein expression (decreased in positive group): reversed
  Bcl-2 protein expression (increased in positive group): reversed
  Mdm2 protein expression (increase in positive control): partially reversed
  PCNA protein expression (increased in positive group): reversed
  p21 protein expression: restored its expression to a level substantially higher than the negative control
  total p53 protein level: significantly increased
  wild type p53 protein level: restored its expression to a level even higher than that of the negative control
Sprague Dawley (SD) rats [2]
  rat serum ALT level: levels similar to those in the negative control
  rat serum AST level: levels similar to those in the negative control
Sprague Dawley (SD) rats [3]; positive control 215% of negative control
  rat serum ALT level: levels similar to those in the negative control
Sprague Dawley (SD) rats [3]; positive control 265% of negative control
  rat serum AST level: levels similar to those in the negative control

— patent publication US20100120703A1, “COMPOSITIONS AND METHODS FOR TREATING CANCER” (priority 2007, published 2010)
